Reference: patent US9023847B2, “Azaheterocyclic compounds” (Merck Patent GmbH, priority 2009, dated 2015)

target: T1, P70S6K (T412E mutant, Millipore) (Homo sapiens, UniProt P23443, T412E); assay: p70S6K enzyme assay; type: biochemical; details: Table 1; 3 nM P70S6K, 24 μM ATP, 90 min at 25° C.; read-out: p70S6K inhibition (IC50)
T1 construct: purchased Millipore
Experimental: P70S6K inhibitor compounds are diluted and plated in 96 well plates. A reaction mixture including the following components is then added to the compound plate to initiate the enzyme reaction; P70S6K (3 nM, T412E mutant, Millipore) is mixed with 24 μM ATP in an assay buffer containing 100 mM Hepes (pH 7.5), 5 mM MgCl2, 1 mM DTT, 0.015% Brij and 1 μM of the substrate peptide FITC-AHA-AKRRRLSSLRA-OH (derived from the S6 ribosomal protein sequence, FITC=fluorescein isothiocyanate, AHA=6-aminohexanoic acid). The reaction is incubated for 90 min at 25° C., before the addition of 10 mM EDTA to stop the reaction. The proportion of substrate and product (phosphorylated) peptide is analysed on a Caliper Life Sciences Lab Chip 3000, using a pressure of −1.4 psi, and upstream and downstream voltages of −3000 and −700 respectively. Product peaks are resolved before substrate peaks on the resulting chromatograms.

T1 sequence (P23443 whole entry T412E): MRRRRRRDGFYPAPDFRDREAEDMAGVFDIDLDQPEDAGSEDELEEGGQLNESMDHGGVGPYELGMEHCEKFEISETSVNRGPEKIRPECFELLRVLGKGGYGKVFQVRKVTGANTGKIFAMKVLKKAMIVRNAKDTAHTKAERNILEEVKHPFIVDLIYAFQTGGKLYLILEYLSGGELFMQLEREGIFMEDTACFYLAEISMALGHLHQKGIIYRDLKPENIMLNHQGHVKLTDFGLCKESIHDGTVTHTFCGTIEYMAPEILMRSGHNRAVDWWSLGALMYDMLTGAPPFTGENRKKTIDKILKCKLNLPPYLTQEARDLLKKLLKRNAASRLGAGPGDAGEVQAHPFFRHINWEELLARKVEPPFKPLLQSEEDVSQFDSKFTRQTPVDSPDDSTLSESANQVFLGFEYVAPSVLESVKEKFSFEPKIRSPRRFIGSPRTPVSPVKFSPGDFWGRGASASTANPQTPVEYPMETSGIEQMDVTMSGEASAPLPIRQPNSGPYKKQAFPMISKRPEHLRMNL

Structure (SMILES) | IC50 [nM]
CNCCNC(=O)c1sccc1Nc1ncnc2[nH]ccc12 [Example 153, 3-(7H-Pyrrolo[2,3-d]pyrimidin-4-ylamino)-thiophene-2-carboxylic acid (2-methylamino-ethyl)-amide] | 100 to 1000
CC(C)(C)OC(=O)N(CCNC(=O)c1occc1Nc1ncnc2[nH]ccc12)Cc1ccccc1 [Example 157, Benzyl-(2-{[3-(7H-pyrrolo[2,3-d]pyrimidin-4-ylamino)-furan-2-carbonyl]-amino}-ethyl)-carbamic acid tert-butyl ester] | 1000 to 10000
O=C(NCCc1ccc(F)cc1)c1sccc1Nc1ccnc2[nH]ccc12 [Example 150, 3-(1H-Pyrrolo[2,3-b]pyridin-4-ylamino)-thiophene-2-carboxylic acid [2-(4-fluoro-phenyl)-ethyl]-amide] | < 100
O=C(NCCc1ccc(Br)cc1)c1sccc1Nc1ncnc2[nH]ccc12 [Example 146, 3-(7H-Pyrrolo[2,3-d]pyrimidin-4-ylamino)-thiophene-2-carboxylic acid [2-(4-bromo-phenyl)-ethyl]-amide] | < 100

same assay, conditions: class symbol; 3 nM P70S6K, 24 μM ATP; read-out: IC50 (p70S6K)

Structure (SMILES) | IC50 [nM]
CC(C)(C)OC(=O)N1CCC(NC(=O)c2sccc2Nc2ccnc3[nH]ccc23)C1 (stereo not drawn) [Example 5, 3-{[3-(1H-Pyrrolo[2,3-b]pyridin-4-ylamino)-thiophene-2-carbonyl]-amino}-pyrrolidine-1-carboxylic acid tert-butyl ester] | 100 to 1000
O=C(NCCNCc1cccc(OC(F)(F)F)c1)c1sccc1Nc1ccnc2[nH]ccc12 [Example 50, 3-(1H-Pyrrolo[2,3-b]pyridin-4-ylamino)-thiophene-2-carboxylic acid [2-(3-trifluoromethoxy-benzylamino)-ethyl]-amide] | < 100
[N-]=[N+]=NC[C@@H](NC(=O)c1ccsc1Nc1ccnc2[nH]ccc12)c1ccccc1 [Example 114, 2-(1H-Pyrrolo[2,3-b]pyridin-4-ylamino)-thiophene-3-carboxylic acid ((S)-2-azido-1-phenyl-ethyl)-amide] | < 100
O=C(NCCNCc1cccnc1)c1sccc1Nc1ccnc2[nH]ccc12 [Example 61, 3-(1H-Pyrrolo[2,3-b]pyridin-4-ylamino)-thiophene-2-carboxylic acid {2-[(pyridin-3-ylmethyl)-amino]-ethyl}-amide] | 100 to 1000
O=C(NCCOCc1ccccc1)c1sccc1Nc1ccnc2[nH]ccc12 [Example 68, 3-(1H-Pyrrolo[2,3-b]pyridin-4-ylamino)-thiophene-2-carboxylic acid (2-benzyloxy-ethyl)-amide] | < 100
Cc1cc(Nc2ccnc3[nH]ccc23)c(C(=O)N[C@H](CO)c2ccccc2)s1 [Example 80, 5-Methyl-3-(1H-pyrrolo[2,3-b]pyridin-4-ylamino)-thiophene-2-carboxylicacid ((S)-2-hydroxy-1-phenyl-ethyl)-amide] | 100 to 1000
CC(C)(C)OC(=O)N1CCC(NC(=O)c2ccsc2Nc2ccnc3[nH]ccc23)C1 (stereo not drawn) [Example 102, 3-{[2-(1H-Pyrrolo[2,3-b]pyridin-4-ylamino)-thiophene-3-carbonyl]-amino}-pyrrolidine-1-carboxylic acid tert-butyl ester] | 100 to 1000
COc1cccc(CNC(=O)c2sccc2Nc2ccnc3[nH]ccc23)c1 [Example 94, 3-(1H-Pyrrolo[2,3-b]pyridin-4-ylamino)-thiophene-2-carboxylic acid 3-methoxybenzylamide] | < 100
O=C(NC(CO)C(=O)NCc1ccccc1)c1sccc1Nc1ccnc2[nH]ccc12 (stereo not drawn) [Example 88, 3-(1H-Pyrrolo[2,3-b]pyridin-4-ylamino)-thiophene-2-carboxylic acid (1-benzylcarbamoyl-2-hydroxy-ethyl)-amide] | 100 to 1000
Cc1ccccc1CCNC(=O)c1sccc1Nc1ccnc2[nH]ccc12 [Example 25, 3-(1H-Pyrrolo[2,3-b]pyridin-4-ylamino)-thiophene-2-carboxylic acid (2-o-tolyl-ethyl)-amide] | < 100
CC(C)C[C@@H](CO)NC(=O)c1sccc1Nc1ccnc2[nH]ccc12 [Example 97, 3-(1H-Pyrrolo[2,3-b]pyridin-4-ylamino)-thiophene-2-carboxylic acid ((S)-1-hydroxymethyl-3-methyl-butyl)-amide] | 100 to 1000
O=C(NCCc1ccncc1)c1sccc1Nc1ccnc2[nH]ccc12 [Example 17, 3-(1H-Pyrrolo[2,3-b]pyridin-4-ylamino)-thiophene-2-carboxylic acid (2-pyridin-4-yl-ethyl)-amide] | 100 to 1000
NCCNC(=O)c1sccc1Nc1ccnc2[nH]ccc12 [Example 42, 3-(1H-Pyrrolo[2,3-b]pyridin-4-ylamino)-thiophene-2-carboxylic acid (2-amino-ethyl)-amide] | < 100
CC(CO)NC(=O)c1sccc1Nc1ccnc2[nH]ccc12 (stereo not drawn) [Example 10, 3-(1H-Pyrrolo[2,3-b]pyridin-4-ylamino)-thiophene-2-carboxylic acid (2-hydroxy-1-methyl-ethyl)-amide] | 100 to 1000

More lines, now with the values ahead:

IC50 [nM] | Structure (SMILES)
< 100 | O=C(NCCc1cccc(F)c1)c1sccc1Nc1ncnc2[nH]ccc12 [Example 175, 3-(7H-Pyrrolo[2,3-d]pyrimidin-4-ylamino)-thiophene-2-carboxylic acid [2-(3-fluorophenyl)-ethyl]-amide]
< 100 | O=C(NCCc1ccccc1)c1sccc1Nc1ncnc2[nH]ccc12 [Example 174, 3-(7H-Pyrrolo[2,3-d]pyrimidin-4-ylamino)-thiophene-2-carboxylic acid phenethylamide]
< 100 | O=C(N[C@H](CN1C(=O)c2ccccc2C1=O)c1ccccc1)c1ccsc1Nc1ccnc2[nH]ccc12 [Example 134, (S)-[3-(1H-Pyrrolo[2,3-b]pyridin-4-ylamino)-thiophene-2-carboxylic acid[2-(1,3-dioxo-1,3-dihydro-isoindol-2-yl)-1-phenyl-ethyl]-amide]]
1000 to 10000 | CC(C)(C)OC(=O)N(CCNC(=O)c1occc1Nc1ncnc2[nH]ccc12)Cc1ccccc1 [Example 177]
< 100 | NC[C@@H](NC(=O)c1sccc1Nc1ccnc2[nH]ccc12)c1cccc(Cl)c1 (stereo in doubt) [Example 124, 3-(1H-Pyrrolo[2,3-b]pyridin-4-ylamino)-thiophene-2-carboxylic acid [2-amino-1-(3-chloro-phenyl)-ethyl]-amide]
< 100 | Cc1c[nH]c2ncnc(Nc3ccsc3C(=O)NCc3cccc(Cl)c3)c12 [Example 187, 3-(5-Methyl-7H-pyrrolo[2,3-d]pyrimidin-4-ylamino)-thiophene-2-carboxylic acid 3-chloro-benzylamide]
< 100 | CN1CCN(c2cc(C(=O)Nc3cccc(CNC(=O)c4sccc4Nc4ccnc5[nH]ccc45)c3)ccn2)CC1 [Example 163, 2-(4-Methyl-piperazin-1-yl)-N-[3-({[3-(1H-pyrrolo[2,3-b]pyridin-4-ylamino)-thiophene-2-carbonyl]-amino}-methyl)-phenyl]-isonicotinamide]
< 100 | O=C(Nc1cccc(CNC(=O)c2sccc2Nc2ccnc3[nH]ccc23)c1)c1ccnc(Cl)c1 [Example 129, 2-Chloro-N-[3-({[3-(1H-pyrrolo[2,3-b]pyridin-4-ylamino)-thiophene-2-carbonyl]-amino}-methyl)-phenyl]-isonicotinamide]
< 100 | O=C(NC1CCCNC1)c1sccc1Nc1ncnc2[nH]ccc12 (stereo not drawn) [Example 186, 3-(7H-Pyrrolo[2,3-d]pyrimidin-4-ylamino)-thiophene-2-carboxylic acid piperidin-3-ylamide]
